Values of other authors as cited in patent publication US20070149443A1, “Methods of treating obesity using enterostatin” (priority 2005, published 2007).

Conditions: administered orally to humans; literature report

enterostatin
did not affect: body weight | energy expenditure | food intake
